Assay results as given in US9206161B2, “Bridged bicyclic heteroaryl substituted triazoles useful as Axl inhibitors” (Rigel Pharmaceuticals, Inc., priority 2008, dated 2015).

Target: T1, Axl (Homo sapiens, UniProt P30530)
T1 construct: endogenous in cells; host or cells: HeLa cells
T1 sequence (P30530 26-894): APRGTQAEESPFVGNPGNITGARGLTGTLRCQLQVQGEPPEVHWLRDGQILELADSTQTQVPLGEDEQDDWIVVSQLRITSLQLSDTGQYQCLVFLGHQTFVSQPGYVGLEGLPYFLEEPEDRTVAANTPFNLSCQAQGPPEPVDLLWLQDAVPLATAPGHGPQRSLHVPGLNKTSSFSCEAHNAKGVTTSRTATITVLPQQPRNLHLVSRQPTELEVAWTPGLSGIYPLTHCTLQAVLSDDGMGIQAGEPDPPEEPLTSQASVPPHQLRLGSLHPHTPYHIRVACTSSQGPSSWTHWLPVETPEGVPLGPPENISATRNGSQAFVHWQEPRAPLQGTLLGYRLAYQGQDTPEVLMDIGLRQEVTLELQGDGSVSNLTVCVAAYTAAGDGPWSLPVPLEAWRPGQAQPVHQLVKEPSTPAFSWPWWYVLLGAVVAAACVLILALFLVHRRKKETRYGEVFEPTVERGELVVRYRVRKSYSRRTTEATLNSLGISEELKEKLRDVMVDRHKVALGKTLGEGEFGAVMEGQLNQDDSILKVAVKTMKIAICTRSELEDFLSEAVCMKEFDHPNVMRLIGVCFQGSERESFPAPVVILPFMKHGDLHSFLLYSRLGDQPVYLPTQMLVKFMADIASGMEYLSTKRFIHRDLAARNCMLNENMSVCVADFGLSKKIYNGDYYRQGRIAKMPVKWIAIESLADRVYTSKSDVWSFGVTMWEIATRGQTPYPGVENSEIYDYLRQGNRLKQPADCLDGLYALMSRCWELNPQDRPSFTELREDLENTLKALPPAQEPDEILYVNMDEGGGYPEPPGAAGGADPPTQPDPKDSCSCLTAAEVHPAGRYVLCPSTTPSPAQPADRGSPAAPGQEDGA
Experiment: Phospho-Akt in-cell Western assay
Format: cell-based
Settings: Hela cells, Axl antibody cross-linking stimulation, phospho-Akt readout
Description: Phospho-Akt in-Cell Western Assay
The compounds of the invention were tested in the following assay for their ability to inhibit Axl activity.
• Cell culture plate: 96 well assay plate (Corning 3610), white, clear bottom, tissue-culture treated. • Cells: Hela cells. • Starvation medium: For Axl stimulation: 0.5% FCS (fetal calf serum) in DMEM, plus Axl/Fc (extracellular domain of AXL fused to immunoglobulin Fc region) (R&D, 154-AL) 500 ng/mL. • For EGF (epidermal growth factor) stimulation: 0.5% FCS in DMEM (Dulbecco's modified Eagles medium). • Poly-L-Lysine 0.01% solution (the working solution): 10 μg/ml, dilute In PBS (phosphate buffered saline). • Axl antibody cross-linking: • 1st: Mouse anti-Axl (R&D, MAB154). • 2nd: Biotin-SP-conjugated AffiniPure goat anti-mouse IgG (H+L) (Jackson ImmunoResearch #115-065-003). • Fixing buffer: 4% formaldehyde in PBS. • Wash buffer: 0.1% TritonX-100 in PBS. • Quenching buffer: 3% H2O2, 0.1% Azide in wash buffer, Azide and hydrogen peroxide (H2O2) are added fresh. • Blocking buffer: 5% BSA in TBST (tris buffered saline plus 0.1% Tween 20). • Primary antibody: Rabbit anti-human Phospho-Akt antibody (Cell Signaling 9271): 1×250 diluted in blocking buffer. • Secondary antibody: HRP (horse radish peroxidase)-conjugated Goat anti-Rabbit secondary, stock solution: Jackson ImmunoResearch (Goat anti-Rabbit HRP, #111-035-144) 1:1 diluted in glycerol, store at −20° C. The working solution: 1×2000 dilution of stock in blocking buffer. • Chemiluminescent working solution (Pierce, 37030): SuperSignal ELISA (enzyme linked immunosorbant assay) Pico Chemiluminescent substrate. • Crystal Violet solution: Stock: 2.5% Crystal violet in methanol, filtered and kept at ambient temperature. The working solution: dilute the stock 1:20 with PBS immediately before use. • 10% SDS: working solution: 5% SDS (sodium dodecylsulfate), diluted in PBS Methods: Day 1:
A 96 well TC (tissue culture treated) plate was coated with 10 μg/mL poly-L-Lysine at 37° C. for 30 min, washed twice with PBS, and air-dried for 5 minutes before cells were added. Hela cells were seeded at 10,000 cells/well and the cells were starved in 100 μL starvation medium containing Axl/Fc for 24 hrs.
The cells were pre-treated with test compounds by adding 100 μL of 2× test compound to the starvation medium on the cells. The cells were incubated at 37° C. for 1 hr before stimulation.
The cells were stimulated by Axl-antibody cross-linking as follows: A 5×1st/2nd Axl antibody mixture was made (37.5 μg/mL 1st/100 μg/mL 2nd) in starvation medium and nutated at 4° C. with thorough mixing for 1-2 hours for clustering. The resulting mix was warmed to 37° C. 50 μL of 5× Axl 1st/2nd of antibody cluster was added to the cells and the cells were incubated at 37° C. for 5 min.
After 5 minutes stimulation, the plate was flicked to remove medium and the plate was tapped onto paper towels. Formaldehyde (4.0% in PBS, 100 μL) was added to fix the cells and the cells were incubated at ambient temperature for 20 min without shaking.
The cells were washed with a plate washer buffer to remove the formaldehyde solution. The plate was flicked to removed excess wash buffer and tapped onto paper towels. Quenching buffer (100 μL) was added to each well and the cells were incubated at ambient temperature for 20 minutes without shaking.
The cells were washed with a plate washer buffer to remove the quenching buffer. Blocking buffer (100 μL) was added and the cells were incubated at ambient temperature for at least an hour with gentle shaking.
The cells were washed with a plate washer buffer and diluted primary antibody (50 μL) was added to each well (blocking buffer was added to the negative control wells instead). The plates were incubated overnight at 4° C. with gentle shaking.
The wash buffer was removed, diluted secondary antibody (100 μL) was added, and the cells were incubated at ambient temperature for 1 hour with gentle shaking. […]

Compound: Nc1nc(Nc2ccc(N3CCC(N4CCCC4)CC3)c(F)c2)n(-c2nnc(Cl)c3c2C2CCC3CC2)n1 [Compound 14, 1-(4-chloro-5,8-ethano-5,6,7,8-tetrahydrophthalazine-1-yl)-N^5-(4-(4-(pyrrolidin-1-yl)piperidinyl)-3-fluorophenyl)-1H-1,2,4-triazole-3,5-diamine]
- IC50 (Table 6, formula (IVb)): 1 to 10 µM

Compound: CCN(CC)[C@H]1CCc2ccc(Nc3nc(N)n(-c4cc(-c5ccccc5)c5c(n4)C4CCN5CC4)n3)cc2CC1 [Compound 35, (7S)-1-(1,4-ethano-8-phenyl-1,2,3,4-tetrahydro-1,5-naphthyridin-6-yl)-N^3-(7-(diethylamino)-6,7,8,9-tetrahydro-5H-benzo[7]annulene-2-yl)-1H-1,2,4-triazole-3,5-diamine]
- IC50 (Table 4, formula (III)): < 1 µM

Compound: Nc1nc(Nc2ccc(N3CCC(N4CCCC4)CC3)c(F)c2)nn1-c1nc(-c2ccccc2)c2c(n1)C1CCN2CC1 [Compound 43, 1-(5,8-ethano-4-phenyl-5,6,7,8-tetrahydropyrido[3,2-d]pyrimidin-2-yl)-N^3-(4-(4-(pyrrolidin-1-yl)piperidinyl)-3-fluorophenyl)-1H-1,2,4-triazole-3,5-diamine]
- IC50 (Table 9, formula (VII)): < 1 µM

Compound: Cc1cc(F)ccc1-c1nnc(-n2nc(Nc3ccc4c(c3)CCC(N3CCCC3)CC4)nc2N)c2c1C1CCC2CC1 (centres unmarked) [Compound 33, 1-(4-(4-fluoro-2-methylphenyl)-5,8-ethano-5,6,7,8-tetrahydrophthalazine-1-yl)-N^3-(7-(pyrrolidin-1-yl)-6,7,8,9-tetrahydro-5H-benzo[7]annulene-2-yl)-1H-1,2,4-triazole-3,5-diamine]
- IC50 (Table 8, formula (VI)): < 1 µM

Compound: Nc1nc(Nc2ccc(N3CCC(N4CCCC4)CC3)c(F)c2)nn1-c1nnc(-c2ccncc2)c2c1C1CCC2CC1 [Compound 18, 1-(4-(pyridin-4-yl)-5,8-ethano-5,6,7,8-tetrahydrophthalazine-1-yl)-N^3-(4-(4-(pyrrolidin-1-yl)piperidinyl)-3-fluorophenyl)-1H-1,2,4-triazole-3,5-diamine]
- IC50 (Table 5, formula (IVa)): < 1 µM

Compound: Nc1nc(Nc2ccc(N3CCC(N4CCCC4)CC3)c(F)c2)nn1-c1nnc(-c2ccc3c(c2)OCO3)c2c1C1CCC2CC1 [Compound 17, 1-(4-(benzo[d][1,3]dioxol-5-yl)-5,8-ethano-5,6,7,8-tetrahydrophthalazine-1-yl)-N^3-(4-(4-(pyrrolidin-1-yl)piperidinyl)-3-fluorophenyl)-1H-1,2,4-triazole-3,5-diamine]
- IC50 (Table 5, formula (IVa)): < 1 µM

Compound: Nc1nc(Nc2ccc3c(c2)CC[C@@H](N)CC3)nn1-c1cc(-c2ccccc2)c2c(n1)C1CCN2CC1 [Compound 26, (7S)-1-(1,4-ethano-8-phenyl-1,2,3,4-tetrahydro-1,5-naphthyridin-6-yl)-N^3-(7-amino-6,7,8,9-tetrahydro-5H-benzo[7]annulene-2-yl)-1H-1,2,4-triazole-3,5-diamine]
- IC50 (Table 4, formula (III)): < 1 µM

Compound: Nc1nc(Nc2ccc3c(c2)CCC(N2CCCC2)CC3)nn1-c1nnc(Cl)c2c1C1CCC2CC1 (centres unmarked) [Compound 27, 1-(4-chloro-5,8-ethano-5,6,7,8-tetrahydrophthalazine-1-yl)-N^3-(7-(pyrrolidin-1-yl)-6,7,8,9-tetrahydro-5H-benzo[7]annulene-2-yl)-1H-1,2,4-triazole-3,5-diamine]
- IC50 (Table 8, formula (VI)): < 1 µM

Compound: Cc1cccc(-c2nnc(-n3nc(Nc4ccc5c(c4)CCC(N4CCCC4)CC5)nc3N)c3c2C2CCC3CC2)c1 (centres unmarked) [Compound 30, 1-(4-(3-methylphenyl)-5,8-ethano-5,6,7,8-tetrahydrophthalazine-1-yl)-N^3-(7-(pyrrolidin-1-yl)-6,7,8,9-tetrahydro-5H-benzo[7]annulene-2-yl)-1H-1,2,4-triazole-3,5-diamine]
- IC50 (Table 8, formula (VI)): < 1 µM

Compound: Cc1cccc(-c2nnc(-n3nc(Nc4ccc(N5CCN(CC6CC6)[C@@H](C)C5)nc4)nc3N)c3c2C2CCC3CC2)c1 [Compound 23, (3S)-1-(4-(3-methylphenyl)-5,8-ethano-5,6,7,8-tetrahydrophthalazine-1-yl)-N^3-(6-(4-(cyclopropylmethyl)-3-methylpiperazin-1-yl)pyridin-3-yl)-1H-1,2,4-triazole-3,5-diamine]
- IC50 (Table 7, formula (V)): 1 to 10 µM

Compound: N#Cc1cccc(-c2nnc(-n3nc(Nc4ccc(N5CCC(N6CCCC6)CC5)c(F)c4)nc3N)c3c2C2CCC3CC2)c1 [Compound 16, 1-(4-(3-cyanophenyl)-5,8-ethano-5,6,7,8-tetrahydrophthalazine-1-yl)-N^3-(4-(4-(pyrrolidin-1-yl)piperidinyl)-3-fluorophenyl)-1H-1,2,4-triazole-3,5-diamine]
- IC50 (Table 5, formula (IVa)): < 1 µM

Compound: Nc1nc(Nc2ccc(N3CCC(N4CCCC4)CC3)c(F)c2)nn1-c1cc(-c2ccc(F)cc2)c2c(n1)C1CCN2CC1 [Compound 8, 1-(1,4-ethano-8-(4-fluorophenyl)-1,2,3,4-tetrahydro-1,5-naphthyridin-6-yl)-N^3-(4-(4-(pyrrolidin-1-yl)piperidinyl)-3-fluorophenyl)-1H-1,2,4-triazole-3,5-diamine]
- IC50 (Table 3, formula (II)): < 1 µM

Compound: Nc1nc(Nc2cnc3c(c2)CC(NC2CCCC2)CC3)nn1-c1cc(-c2ccccc2)c2c(n1)C1CCN2CC1 (centres unmarked) [Compound 5, 1-(1,4-ethano-8-phenyl-1,2,3,4-tetrahydro-1,5-naphthyridin-6-yl)-N^3-(6-(cyclopentylamino)-5,6,7,8-tetrahydroquinoline-3-yl)-1H-1,2,4-triazole-3,5-diamine]
- IC50 (Table 1, formula (Ia)): < 1 µM

Compound: Cc1ccccc1-c1cc(-n2nc(Nc3ccc(N4CCC(N5CCCC5)CC4)c(F)c3)nc2N)nc2c1N1CCC2CC1 [Compound 12, 1-(1,4-ethano-8-(2-methylphenyl)-1,2,3,4-tetrahydro-1,5-naphthyridin-6-yl)-N^3-(4-(4-(pyrrolidin-1-yl)piperidinyl)-3-fluorophenyl)-1H-1,2,4-triazole-3,5-diamine]
- IC50 (Table 3, formula (II)): < 1 µM
